Data on 1 compound can be found in patent publication US20250011738A1, “HEAT TOLERANT ALKALINE PHOSPHATASE” (BiomEdit, LLC, priority 2021, published 2025).

Read-outs that look alike come from different tables or passages of the source.

The experiment has as its target T1, Paenibacillus lentus alkaline phosphatase AP1 heat tolerant mutant APHT (designated "HT"), 16 amino acid changes from AP1, SEQ ID NO: 1 (Paenibacillus lentus, UniProt A0A3Q8S6G4, A163G/A247P/A302M/D102S/D304A/F110I/G290A/K198N/K66I/L136H/S105A/S168N/S338G/S535E/T223N/V100I/Y117N).
T1 sequence (A0A3Q8S6G4 34-572 K66I/V100I/D102S/S105A/F110I/Y117N/L136H/A163G/S168N/K198N/T223N/A247P/G290A/A302M/D304A/S338G/S535E): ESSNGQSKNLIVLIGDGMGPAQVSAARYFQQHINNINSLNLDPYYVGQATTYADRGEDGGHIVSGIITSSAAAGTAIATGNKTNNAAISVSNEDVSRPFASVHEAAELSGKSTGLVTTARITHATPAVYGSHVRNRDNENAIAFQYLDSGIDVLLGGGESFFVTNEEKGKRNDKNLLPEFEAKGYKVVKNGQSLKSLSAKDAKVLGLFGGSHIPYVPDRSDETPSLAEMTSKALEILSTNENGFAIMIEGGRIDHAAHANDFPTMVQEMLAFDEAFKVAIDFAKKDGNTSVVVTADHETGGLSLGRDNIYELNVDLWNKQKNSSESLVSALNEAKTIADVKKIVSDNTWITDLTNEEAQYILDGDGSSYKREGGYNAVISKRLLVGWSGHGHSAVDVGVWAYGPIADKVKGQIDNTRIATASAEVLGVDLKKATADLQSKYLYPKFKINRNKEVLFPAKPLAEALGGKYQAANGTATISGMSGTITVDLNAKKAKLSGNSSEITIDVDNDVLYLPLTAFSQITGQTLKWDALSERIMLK
Type of experiment: biochemical. On the procedure: FIG. 7 presents effect of pH on (A)Vmax (IU/mg) and (B) KM (μM) activity of AP1 (designated “Native”) and APHT (designated “HT”). Assays were performed at 40° C. with p-NPP as substrate in the concentration range 0-5 mM. The enzyme concentration was 2.5 μg/mL for the pH 8 and 0.4 mg/mL for pH 9-13).
FIG. 8 presents effect of pH on (A)Vmax (IU/mg) and (B) KM (μM) activity of AP1 (designated “Native”) and APHT (designated “HT”). Assays were performed at 50° C. with p-NPP as substrate in the concentration range 0-5 mM. The enzyme concentration was 2.5 μg/mL for the pH 8 and 0.4 mg/mL for pH 9-13).
To further improve the thermal stability, a set of synthetic alkaline phosphatase genes where each amino acid was mutated to other possibilities one at a time was constructed and evaluated. […] In FIG. 5A, the AP1 with a serine mutation is designated as “AP Native” and is depicted in sequence with a leader sequence […] (SEQ ID NO:13). The AP1 with leader sequence […] is provided in SEQ ID NO:14). The APHT polypeptide with leader sequence […] is provided in SEQ ID NO:15). In FIG. 5B, the AP1 with a serine mutation and without any leader sequence or leader peptide amino acids (SEQ ID NO:4) is aligned and compared with the APHT without any leader sequence or leader peptide amino acids (SEQ ID NO:1). The 16 amino acid changes in APHT are evident. The APHT amino acid sequence (excluding and without any leader sequence and starting with amino acids ESSN) is 97% identical to the sequence of AP1 (excluding and without any leader sequence and starting with amino acids ESSN).
The APHT sequence (SEQ ID NO: 1) is provided below with the amino acid mutations versus the AP1 sequence underlined and in bold.
• 1 M DEA Buffer pH 10. Dissolve 10.5 g of diethanolamine in to 100 ml of water. The pH adjust with 1 M hydrochloric acid or 1 M NaOH. Filter sterilize and store at 4 C. • 0.5 M Tris Base Buffer pH 10 and 8. Dissolve 6.06 g of Tris in to 100 ml of water. The pH adjust with 1 M hydrochloric acid or 1 M NaOH. Filter sterilize and store at 4 C. • 0.1 M Borate Buffer pH 11 and 12. Dissolve 0.62 g Boric acid, 0.44 g NaCl and Sodium tetraborate 0.95 g in 100 ml H2O. The pH adjust with 1 M hydrochloric acid or 1 M NaOH. Filter sterilize and store at 4 C. • 1 M KCl/NaOH Buffer pH 13. Dissolve 7.4 g KCl in 100 ml water. The pH adjust with 1 M NaOH. Filter sterilize and store at 4 C. • 1 M MgCl2, 23.8 g MgCl2 anhydrous in […] water. Filter sterilize and store at 4 C 3. Activity Assay: p-NPP Substrate
Reactions were carried out at 40° C. using 50 mM Tris buffer pH 7 with 50 mM MgCl2 and at 50° C. using 50 mM DEA buffer pH 10 with 50 mM MgCl2. Enzyme was thawed, aliquoted in 500 μL vials and freeze at −80° C. For 100 μL volume of reaction, components were mixed in 96-well microplate (Fisher 12565501) following the order in TABLE 1. Every reaction condition was done by triplicated at least.
After the adding enzyme, the absorption of product was followed at 405 nm over 5 min in a M5 plate reader with intervals of 20 s. Initial rate was determined for each curve and product formed calculated using the extinction coefficient of 18.5 mM^−1·cm^−1 and a calculated pathlength of 0.5 cm. Initial rates where fitted to Michalis Menten model built in the Kaleidagraph software.
pH effect on enzyme activity was tested at 40 and 50° C. in the corresponding buffer with 50 mM MgCl2 using p-NPP as substrate in the concentration range 0-5.0 mM. The reaction started with the addition of enzyme (2.5 μg/mL for pH 8 and 0.4 μg/mL for pH 9-13) and the absorption at 405 nm was followed for 5 min. Every reaction condition was done by triplicated at least.

Turning to `O=[N+]([O-])c1ccc(OP(=O)(O)O)cc1` [p-NPP, p-nitrophenylphosphate], the Km runs as follows: (40° C., Borate pH 11) 12200 µM; (40° C., Borate pH 12) 498 µM; (40° C., DEA pH 10) 2540 µM; (40° C., Tris pH 8) 46 µM; (40° C., Tris pH 9) 992 µM; (50° C., Borate pH 11) 12200 µM. Further, the Km (50° C., Borate pH 12) is 1080 µM; the Km (50° C., DEA pH 10) is 2540 µM; the Km (50° C., KCl/NaOH (pH printed 204; Table 2: 13.0)) was found to be 498 µM; the Km (50° C., Tris pH 8) was 45 µM; the Km (50° C., Tris pH 9) is 992 µM.

Usually Km stands for the concentration of substrate that gives half-maximal velocity.
